Test results taken from PMC5597684, “Prediction and in vitro verification of potential CTL epitopes conserved among PRRSV-2 strains” (Immunogenetics, 2017).
Where two headings read alike, the source gives them in different places. Ends that are not written are not given here.

How the values were obtained:
SLA-1*04:01 [1] = molecular target: T1, SLA-1*04:01 (Sus scrofa, UniProt O19244); assay: pSLA binding affinity, modified ELISA; design: species or system swine
Protocol: (§1) Five SLA class I alleles were used: SLA-1*04:01, SLA-1*07:02, SLA-2*04:01, SLA-2*05:02 and SLA-3*04:01.
(§2) Based on the bioinformatics described above, 53 peptides (purity >85%, GenScript) were acquired for in vitro verification.
(§3) Binding affinity of pSLA complexes was determined in vitro using a modified enzyme-linked immunosorbent assay (ELISA) (Sylvester-Hvid et al. [2002]; Pedersen et al. [2011]). Briefly, 1–2 nM denatured biotinylated recombinant SLA heavy chains were refolded with 15 nM human β2m (hβ2m) and eight fivefold incremental concentrations of the peptide to be tested spanning from 0 to 13 μM. Following obtained equilibrium after two nights of incubation at RT, the samples were transferred to a streptavidin coated 96-well capture plate (436014, Thermo Scientific) for 1½ h of incubation. Mouse-anti-hβ2m, BBM1, and horseradish peroxidase-conjugated goat-anti-mouse IgG (A9917, Sigma-Aldrich) were used as primary and secondary detection antibodies, respectively. Washing steps were performed with 0.05% Tween 20 in PBS. The color reaction of TMB Plus2 (4395A, Kem-En-Tec Diagnostics) was stopped with equivalent amounts of H2SO4 (0.5 M, cat 30144.294, VWR International), and the plates were read at 450–650 nm using a Multiskan EX ELISA reader (Thermo). OD values were converted to measures of affinity (equilibrium dissociation constant, K D) using the prefolded biotinylated […]/HLA-A*02:01 as standard (Kast et al. [1994]), and were again converted to percentile rank scores by the same SLA-specific standard curves that are integrated in NetMHCpan. A minimum of two reliable measurements were aspired for each pSLA combination, and in most cases this was obtained. The results are presented as the range between the minimum and maximum measurements converted to rank scores.

SLA-2*04:01 [2] = molecular target: T2, SLA-2*04:01 (Sus scrofa, UniProt Q8MHU4); assay: pSLA binding affinity, modified ELISA; design: species or system swine
Protocol: as §1, §2, §3

SLA-1*04:01 [3] = molecular target: T1, SLA-1*04:01; assay: pSLA complex stability, scintillation proximity assay (125I-β2m dissociation); type: binding, swine; conditions: SPA, 125I-β2m dissociation at 37 °C over 24 h with 200 nM unlabeled β2m, refolded overnight 18 °C with ≈50 μM peptide, average of duplicates, t½ in decimal hours
Protocol: as §1, §2
(§4) The stability of the pSLA complexes was determined in vitro using a scintillation proximity assay (SPA) employing the principle of ^125I-radiolabeled β2m dissociation as a measure of pSLA complex stability (Harndahl et al. [2011]; Parker et al. [1992b]). Briefly, denatured biotinylated recombinant SLA heavy chains were diluted in PBS/0.1% Lutrol F68 to 50 nM and refolded overnight at 18 °C with 2–10 nM ^125I-radiolabeled β2m and ≈50 μM of the peptide to be tested in streptavidin-coated scintillation 384-well FlashPlate PLUS microplates (SMP410A001PK, PerkinElmer). In case of a binding peptide, a scintillation signal was observed and the off-rate was subsequently determined by increasing the temperature to 37 °C and the addition of an excess of unlabeled β2m (final concentration 200 nM) while continuously monitoring the scintillation signal in a liquid microplate scintillation plate reader (Topcount NXT, PerkinElmer) for 24 h at 37 °C. The off-rate is equivalent to the peptide-specific dissociation rate and serves as a good measure for pSLA complex stability. The stability values reported are the averages of duplicates in half-life (t½) decimal hours.

SLA-2*04:01 [4] = molecular target: T2, SLA-2*04:01; assay: as above; type: binding, swine; conditions: SPA, 125I-β2m dissociation at 37 °C over 24 h with 200 nM unlabeled β2m, refolded overnight 18 °C with ≈50 μM peptide, average of duplicates, t½ in decimal hours
Protocol: as §1, §2, §4

SLA-1*07:02 = assay: as above; type: binding, swine; conditions: SPA, 125I-β2m dissociation at 37 °C over 24 h with 200 nM unlabeled β2m, refolded overnight 18 °C with ≈50 μM peptide, average of duplicates, t½ in decimal hours
Protocol: as §1, §2, §4

[5] = ELISA as above, only one successful affinity measurement, read-out: Aff. (nM), measured affinity (equilibrium dissociation constant)
[6] = ELISA, 1–2 nM heavy chain, 15 nM hβ2m, peptide 0 to 13 μM, two nights at RT, average of successful measurements, read-out: Aff. (nM), measured affinity (average equilibrium dissociation constant)

Row | Sequence | Kd (SLA-1*04:01 [1]; [6]) | Kd (SLA-2*04:01 [2]; [6]) | further results
1 | ALATAPDGTY [ID46] | – | – | Kd (SLA-1*04:01 [1]; [5]): 607 nM
2 | ASDWFAPRY [ID25] | 2 nM | – | –
3 | ASYVWVPLTW [ID20] | – | 17100 nM | –
4 | ATQEWLSRMW [ID31] | – | – | Kd (SLA-2*04:01 [2]; [5]): 50000 nM
5 | FTWYQLASY [ID13] | – | 2 nM | Kd (SLA-1*04:01 [1]; [5]): 92 nM
6 | FVLSWLTPW [ID28] | – | 3 nM | –
7 | GGNWFHLEW [ID8] | – | 16600 nM | –
8 | KIFRFGSHKW [ID22] | – | – | Kd (SLA-2*04:01 [2]; [5]): 9 nM
9 | KSGHPHGLLF [ID6] | – | – | Stab. (h), measured stability (average dissociation half-life) (SLA-1*04:01 [3]): 0.1 h
10 | KVAHNLGFY [ID21] | 4 nM | – | –
11 | KVAHNLGFYF [ID10] | 122 nM | – | –
12 | LSASSQTEY [ID38] | – | – | Kd (SLA-1*04:01 [1]; [5]): 91 nM
13 | LSDSGRISY [ID19] | 10 nM | – | Kd (SLA-2*04:01 [2]; [5]): 4180 nM
14 | LSFSYTAQF [ID12] | – | 73 nM | –
15 | LTAALNRNRW [ID36] | – | 40 nM | –
16 | MSWRYSCTRY [ID44] | – | 15 nM | –
17 | MVNTTRVTY [ID29] | – | – | Kd (SLA-1*04:01 [1]; [5]): 206 nM
18 | NISAVFQTYY [ID23] | 413 nM | 862 nM | –
19 | QVYERGCRWY [ID7] | 682 nM | – | Kd (SLA-2*04:01 [2]; [5]): 209 nM
20 | RSTPAIVRWF [ID3] | – | – | Stab. (h), measured stability (average dissociation half-life) (SLA-1*04:01 [3]): 0.1 h
21 | RTAIGTPVY [ID17] | 57 nM | – | Kd (SLA-2*04:01 [2]; [5]): 385 nM
22 | RTAPNEIAF [ID24] | 4 nM | – | –
23 | RTILGTNNF [ID1] | – | – | Kd (SLA-1*04:01 [1]; [5]): 1030 nM
24 | SSAFFLRYF [ID45] | – | – | Stab. (h), measured stability (average dissociation half-life) (SLA-2*04:01 [4]): 0.1 h
25 | SSEGHLTSVY [ID34] | – | – | Kd (SLA-2*04:01 [2]; [5]): 1690 nM
26 | TLSNYRRSY [ID15] | – | – | Stab. (h), measured stability (average dissociation half-life) (SLA-1*07:02): 0.3 h
27 | TTMPSGFELY [ID43] | 576 nM | – | Kd (SLA-2*04:01 [2]; [5]): 1840 nM
28 | WGVYSAIETW [ID48] | – | 21400 nM | –
29 | YAQHMVLSY [ID2] | – | 60 nM | –
30 | YSFPGPPFF [ID4] | – | – | Kd (SLA-1*04:01 [1]; [5]): 37 nM
